Read-outs that look alike come from different tables or passages of the source.
Columns and labels:
[1] = tested on: endogenous NAMPT in U2OS cells; experiment: Cellular NAD+ modulation assay (NAD/NADH-Glo, U2OS cells); assay type: cell-based; conditions: Homo sapiens; for maximal fold induction: read-out: Cellular Emax
Summary of the method: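 Endogenous NAMPT stimulation in U2OS cells treated with compound dilution series for 24 h at 37 °C. Cells lysed with DTAB base, acid-treated 15 min at 60 °C, neutralized, NAD+ read by NAD/NADH-Glo luminescence after 40 min at room temperature. EC50 and Emax (fold over DMSO) derived.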

[2] = biological target: T1, human enzyme NAMPT (full length) (Homo sapiens, UniProt P43490); experiment: NMN fluorescence biochemical assay (stimulation of NMN synthesis by NAMPT); conditions: for EC50: concentration giving half-maximal activation, read-out: Enzymatic EC50; for Enzymatic Emax: fold change of maximal activation compared to DMSO
T1 construct: human enzyme NAMPT (full length)
T1 sequence (P43490 whole entry): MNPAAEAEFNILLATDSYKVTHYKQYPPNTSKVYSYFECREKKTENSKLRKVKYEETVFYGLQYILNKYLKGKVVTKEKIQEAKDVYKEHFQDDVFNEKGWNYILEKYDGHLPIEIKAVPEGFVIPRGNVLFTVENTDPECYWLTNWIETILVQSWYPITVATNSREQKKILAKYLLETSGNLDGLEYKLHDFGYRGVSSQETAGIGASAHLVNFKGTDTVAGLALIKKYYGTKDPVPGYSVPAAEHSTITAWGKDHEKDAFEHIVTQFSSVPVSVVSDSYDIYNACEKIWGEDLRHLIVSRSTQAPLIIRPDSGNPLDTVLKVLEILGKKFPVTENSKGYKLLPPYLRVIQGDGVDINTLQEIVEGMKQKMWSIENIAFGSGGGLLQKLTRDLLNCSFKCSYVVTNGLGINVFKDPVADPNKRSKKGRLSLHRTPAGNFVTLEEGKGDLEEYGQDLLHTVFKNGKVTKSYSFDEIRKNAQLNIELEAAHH
Summary of the method: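 Full-length human NAMPT (100 nM) was preincubated 15 min at 37 °C with compound in 50 mM Tris-HCl pH 7.5, 10 mM MgCl2, 2 mM DTT, then reacted 1 h at 37 °C with 50 μM NAM, 100 μM PRPP, 4 mM ATP (stated solution concentrations). NMN was derivatised with acetophenone/KOH then formic acid and read at Ex/Em 382/445 nm; EC50 and Emax (fold over DMSO) reported.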

[3] = 24 hours incubation, cellular NAD+
[4] = NMN fluorescence assay, purified human NAMPT 100 nM
[5] = 24 hours incubation with compound
[6] = NMN synthesis by purified human NAMPT (100 nM)

| Structure (SMILES) | EC50 [1, 3] [nM] | maximal fold induction [1, 3] | EC50 [2, 4] [nM] | Enzymatic Emax [2] | EC50 [1, 5] [nM] | maximal fold induction [1, 5] | EC50 [2, 6] [nM] |
| --- | --- | --- | --- | --- | --- | --- | --- |
| COc1ccc(CN2C(=O)c3ccccc3C2Cc2c(C)ncnc2C#N)cn1 (stereo not shown) [Compound 595, 5-((2-((6-methoxypyridin-3-yl)methyl)-3-oxoisoindolin-1-yl)methyl)-6-methylpyrimidine-4-carbonitrile] | 500 to 5000 | > 1.5 | 500 to 5000 | B (3≥B>2) | – | – | – |
| CN1CC(c2ccc3c(c2)C(Cc2c(Cl)cnn2C)N(Cc2ccc4[nH]nnc4c2)C3=O)C1 (stereo not shown) [Compound 385, 2-((1H-benzo[d][1,2,3]triazol-5-yl)methyl)-3-((4-chloro-1-methyl-1H-pyrazol-5-yl)methyl)-5-(1-methylazetidin-3-yl)isoindolin-1-one] | 5000 to 50000 | > 1.5 | 500 to 5000 | B (3≥B>2) | – | – | – |
| COc1ccc(CN2C(=O)c3ccccc3C2Cc2c(C#N)ccnc2C#N)cn1 (stereo not shown) [Compound 598, 3-((2-((6-methoxypyridin-3-yl)methyl)-3-oxoisoindolin-1-yl)methyl)pyridine-2,4-dicarbonitrile] | 500 to 5000 | > 1.5 | 500 to 5000 | B (3≥B>2) | – | – | – |
| O=C1c2ccccc2C(Cc2ncccc2Br)N1Cc1ccc(=O)[nH]c1 (stereo not shown) [Compound 322, 3-((3-bromopyridin-2-yl)methyl)-2-((6-oxo-1,6-dihydropyridin-3-yl)methyl)isoindolin-1-one] | 500 to 5000 | > 1.5 | 500 to 5000 | A (A>3) | – | – | – |
| COc1nn(C)c(CC2c3ccccc3C(=O)N2Cc2ccc3[nH]nnc3c2)c1Cl (stereo not shown) [Compound 316, 2-((1H-benzo[d][1,2,3]triazol-5-yl)methyl)-3-((4-chloro-3-methoxy-1-methyl-1H-pyrazol-5-yl)methyl)isoindolin-1-one] | – | – | – | B (3≥B>2) | < 500 | 1.2 to 1.5 | < 500 |
| COc1ccc(CN2C(=O)c3ccccc3C2Cc2ncccc2Br)cc1 (stereo not shown) [Compound 415, 3-((3-bromopyridin-2-yl)methyl)-2-(4-methoxybenzyl)isoindolin-1-one] | < 500 | 1.2 to 1.5 | 500 to 5000 | B (3≥B>2) | – | – | – |
| COc1ccc(CN2C(=O)c3ccc(C4CC4)cc3C2Cc2c(C)ncnc2C#N)cn1 (stereo not shown) [Compound 640, 5-((6-cyclopropyl-2-((6-methoxypyridin-3-yl)methyl)-3-oxoisoindolin-1-yl)methyl)-6-methylpyrimidine-4-carbonitrile] | 500 to 5000 | 1.2 to 1.5 | ≥ 5000 | A (A>3) | – | – | – |
| Cc1ccc(CC2c3ccccc3C(=O)N2Cc2ccc3[nH]c(=O)oc3c2)nc1 (stereo not shown) [Compound 161, 6-((1-((5-methylpyridin-2-yl)methyl)-3-oxoisoindolin-2-yl)methyl)benzo[d]oxazol-2(3H)-one] | – | – | – | A (A>3) | 500 to 5000 | > 1.5 | 500 to 5000 |
| Cc1ncnc(C#N)c1CC1c2ccccc2C(=O)N1CC1CC2(CNC(=O)O2)C1 (stereo not shown) [Compound 491, 6-methyl-5-((3-oxo-2-((6-oxo-5-oxa-7-azaspiro[3.4]octan-2-yl)methyl)isoindolin-1-yl)methyl)pyrimidine-4-carbonitrile] | < 500 | > 1.5 | 500 to 5000 | B (3≥B>2) | – | – | – |
| O=C1c2c(Br)cccc2CN1Cc1ccc(O)cc1 [Compound 29, 7-bromo-2-(4-hydroxybenzyl)isoindolin-1-one] | – | – | – | A (A>3) | 5000 to 50000 | > 1.5 | 500 to 5000 |
| Cc1ccnc(C#N)c1CC1c2ccccc2C(=O)N1C/C=C/c1c[nH]nn1 (stereo not shown) [Compound 409, (E)-3-((2-(3-(1H-1,2,3-triazol-4-yl)allyl)-3-oxoisoindolin-1-yl)methyl)-4-methylpicolinonitrile] | < 500 | > 1.5 | < 500 | B (3≥B>2) | – | – | – |
| Cn1ncc(Cl)c1CC1c2ccccc2C(=O)N1CC#Cc1cn[nH]c1 (stereo not shown) [Compound 453, 2-(3-(1H-pyrazol-4-yl)prop-2-yn-1-yl)-3-((4-chloro-1-methyl-1H-pyrazol-5-yl)methyl)isoindolin-1-one] | < 500 | > 1.5 | < 500 | B (3≥B>2) | – | – | – |
| O=C1c2ccccc2C(Cc2ncccc2Br)N1CCCc1c[nH]nn1 (stereo not shown) [Compound 347, 2-(3-(1H-1,2,3-triazol-4-yl)propyl)-3-((3-bromopyridin-2-yl)methyl)isoindolin-1-one] | 500 to 5000 | > 1.5 | 500 to 5000 | A (A>3) | – | – | – |
| O=C1c2ccccc2C(Cc2ncccc2Br)N1Cc1cc(F)c2[nH]nnc2c1 (stereo not shown) [Compound 329, 3-((3-bromopyridin-2-yl)methyl)-2-((7-fluoro-1H-benzo[d][1,2,3]triazol-5-yl)methyl) isoindolin-1-one] | 5000 to 50000 | > 1.5 | < 500 | B (3≥B>2) | – | – | – |
| COc1ccc(CN2C(=O)c3ccccc3C2Cc2c(C)ncnc2C#N)cc1 (stereo not shown) [Compound 597, 5-((2-(4-methoxybenzyl)-3-oxoisoindolin-1-yl)methyl)-6-methylpyrimidine-4-carbonitrile] | < 500 | > 1.5 | 500 to 5000 | B (3≥B>2) | – | – | – |
| Cn1ncc(Cl)c1CC1c2cc(C3COC3)ccc2C(=O)N1Cc1ccc2[nH]nnc2c1 (stereo not shown) [Compound 370, 2-((1H-benzo[d][1,2,3]triazol-5-yl)methyl)-3-((4-chloro-1-methyl-1H-pyrazol-5-yl)methyl)-5-(oxetan-3-yl)isoindolin-1-one] | < 500 | > 1.5 | < 500 | B (3≥B>2) | – | – | – |
| CC(=O)Nc1ccc(CN2C(=O)c3ccccc3C2C)cc1 (stereo not shown) [Compound 82, N-(4-((1-methyl-3-oxoisoindolin-2-yl)methyl)phenyl)acetamide] | – | – | – | B (3≥B>2) | 500 to 5000 | 1.2 to 1.5 | ≥ 5000 |
| C/C(=C\CN1C(=O)c2ccccc2C1Cc1ncccc1Br)c1c[nH]nn1 (stereo not shown) [Compound 425, (E)-2-(3-(1H-1,2,3-triazol-4-yl)but-2-en-1-yl)-3-((3-bromopyridin-2-yl)methyl) isoindolin-1-one] | < 500 | > 1.5 | < 500 | B (3≥B>2) | – | – | – |
| Cn1ncc(Cl)c1CC1c2cc(CN3CCOCC3)ccc2C(=O)N1CC1CC2(CNC(=O)O2)C1 (stereo not shown) [Compound 461, 2-((3-((4-chloro-1-methyl-1H-pyrazol-5-yl)methyl)-5-(morpholinomethyl)-1-oxoisoindolin-2-yl)methyl)-5-oxa-7-azaspiro[3.4]octan-6-one] | 500 to 5000 | > 1.5 | 500 to 5000 | B (3≥B>2) | – | – | – |
| NC(=O)C1CC(CN2C(=O)c3ccccc3C2Cc2ncccc2Br)C1 (stereo not shown) [Compound 404, 3-((1-((3-bromopyridin-2-yl)methyl)-3-oxoisoindolin-2-yl)methyl)cyclobutane-1-carboxamide] | < 500 | > 1.5 | < 500 | B (3≥B>2) | – | – | – |
| O=C1c2ccccc2C(Cc2ncccc2Br)N1CC1CCc2[nH]c(=O)oc2C1 (stereo not shown) [Compound 400, 6-((1-((3-bromopyridin-2-yl)methyl)-3-oxoisoindolin-2-yl)methyl)-4,5,6,7-tetrahydrobenzo[d]oxazol-2(3H)-one] | 500 to 5000 | > 1.5 | 500 to 5000 | B (3≥B>2) | – | – | – |
| Cn1ncc(Cl)c1CC1c2cc(Cl)ccc2C(=O)N1Cc1ccc2[nH]nnc2c1 (stereo not shown) [Compound 354, 2-((1H-benzo[d][1,2,3]triazol-5-yl)methyl)-5-chloro-3-((4-chloro-1-methyl-1H-pyrazol-5-yl)methyl)isoindolin-1-one] | < 500 | > 1.5 | < 500 | A (A>3) | – | – | – |
| O=C1NCC2(CC(CN3C(=O)c4ccccc4C3Cc3nnn(C4CC4)c3Cl)C2)O1 (stereo not shown) [Compound 471, 2-((1-((5-chloro-1-cyclopropyl-1H-1,2,3-triazol-4-yl)methyl)-3-oxoisoindolin-2-yl)methyl)-5-oxa-7-azaspiro[3.4]octan-6-one] | < 500 | > 1.5 | 500 to 5000 | B (3≥B>2) | – | – | – |
| CC1c2cc(F)ccc2C(=O)N1Cc1ccc2[nH]c(=O)oc2c1 (stereo not shown) [Compound 275, 6-((5-fluoro-3-methyl-1-oxoisoindolin-2-yl)methyl)benzo[d]oxazol-2(3H)-one] | – | – | – | B (3≥B>2) | 500 to 5000 | > 1.5 | ≥ 5000 |
| O=C1c2ccccc2C(Cc2ncccc2Br)N1Cc1ccc2[nH]nnc2c1 (stereo not shown) [Compound 331, 2-((1H-benzo[d][1,2,3]triazol-5-yl)methyl)-3-((3-bromopyridin-2-yl)methyl)isoindolin-1-one] | < 500 | > 1.5 | < 500 | A (A>3) | – | – | – |

Reference: US20260078130A1, “NAMPT MODULATORS, PREPARATIONS, AND USES THEREOF” (SIRONAX LTD., priority 2022, published 2026)
